Assay results taken from patent US4620014A, “2-furylbutyrolactones and methods for using same” (priority 1983, dated 1986).

Key:
[1] = test system: spleen lymphocytes from C57BL/6 mice; experiment: In vitro lymphocyte stimulation assay, C57BL/6 spleen lymphocytes; type: cell-based, mouse
Description: (§1) The purpose of this assay is to challenge lymphocytes in microcultures with one or more polyclonal mitogens at concentrations that will induce mitogenesis within 72 hours of stimulation.
(§2) In the mouse model, spleens are removed from different strains of mice and the spleen cells are teased free and suspended in RPMI-1640 tissue culture medium at a concentration of usually 1×10^7 ml. These cells are dispensed at a concentration of 5.0×10^5 cells per microculture well in a 96 well flat bottom 96 well tissue culture plate. All testing of the compounds of this invention or mitogens are done in replicates of 10. The cells are then treated with PHA, Con-A, specific antigens, or buffer only. If in vitro testing is done, varying concentrations of the compounds of this invention or buffer only are added to the cells as well. After treatment with the mitogens and/or compounds of this invention, the cells are incubated for 72 hours. The response of these cells to mitogens and/or the compounds of this invention is assessed using ^14 C-thymidine labeling on the fourth day at a concentration of 0.01 μCi/well. The labeled cells are harvested using a lymphocyte harvestor and placed onto fibrous paper discs. A scintillation cocktail is added to vials contaning the discs and the results are obtained using a LKB-liquid scintillation counter (Model 1216/Rackbeta II). The data is expressed as a ratio of the cpm of the mitogen stimulated group to the control (non-mitogen) treated group=lymphocyte stimulation index (LSI).
(§3) The lymphocyte stimulation assay may be performed directly on spleen cells obtained from various strains of mice not treated with the compounds of this invention or on lymphocytes obtained from […]. […] Alternatively, the mice may be treated in vivo with the compounds of this invention by intraperitoneal multi-dose schedules, followed by sacrifice and harvesting spleen lymphocytes. These cells are then tested for their response to polyclonal mitogens or specific antigens used to immunize the mice. In this sytem however, no additional compound is added to the in vitro lymphocyte stimulation assay system.
An in vitro lymphocyte stimulation assay is performed directly on normal spleen lymphocytes removed from five normal C57BL/6 mice, using concentrations of Cpd. […] Following three days of incubation the assay is completed.
An in vitro lymphocyte stimulation assay was performed using spleen lymphocytes from normal C57BL/6 mice. The lymphocytes were treated with either 1, 5, 10, 50, or 100 μg/well of Cpd. 1 or buffer.
Cpd. 2 was tested using normal spleen lymphocytes from C57BL/6 mice. A lymphocyte stimulation assay was conducted using either 1, 5, 10, 50, or 100 μg/well […] or just buffer.
Spleen cells from C57BL/6 mice were treated, in vitro, with the crystallizing reagents, succinic acid and succinimide. Since these compounds are spontaneously released from the molecular complex in solution at a molar ratio of 2 moles of Cpds. 1, 2, or 3 per mole of the crystalline reagent, these reagents were treated in the lymphocyte stimulation assay at proper molar concentrations.
The compound of example 3, Cpd. 3, was used to treat C57BL/6 spleen lymphocytes in vitro. The lymphocytes were treated with either 1, 5, 10, 50, or 100 μg/well of Cpd. 3 or just buffer and then a lymphocyte stimulation assay was performed.

[2] = test system: spleen lymphocytes of C57BL/6 mice; experiment: In vivo treatment, lymphocyte stimulation assay, C57BL/6 mice; conditions: 4 days
Description: as §1, §2, §3
Two strains of mice, C57BL/6 and BDF1 are treated for seven days with i.p. administration of either 25, 50, 100, 200, or 400 mg/kg of Cpd. 1 or just buffer. This is followed on the eighth day by a lymphocyte stimulation assay.
A comparison is made of the lymphocyte response to C57BL/6 mice treated 4 days with i.p. administration of either 50, 100, 200, 400 or 800 mg/kg of Cpd. 1, 50, 100, 200, 400 or 800 mg/kg of ascorbic acid (AA), or just buffer. This is followed on the fifth day by a lymphocyte stimulation assay.
Two strains of mice, C57BL/6 and BALB/c, are treated 4 days with i.p. administration of either 50, 100, 200, or 400 mg/kg of Cpd. 1, or just buffer. This is followed on the fifth day by a lymphocyte stimulation assay.
C57BL/6 mice were treated with four daily i.p. doses of either 50, 100, 200, or 400 mg/kg of Cpd. 1 or just buffer. On the fifth day a lymphocyte stimulation assay was performed.
Mice of the C57BL/6 strain were tested with i.p. administration of either 100, 200, 400 or 600 mg/kg of Cpd. 1 or just buffer. This was followed by removal of spleens and treatment of lymphocytes therein with mitogens PHA and Con-A.
The compound of Example 2, Cpd. 2, was tested in vivo by using C57BL/6 mice and treating them with […] or just buffer for four consecutive days by the i.p. route. On the fifth day a lymphocyte stimulation assay was performed.

[3] = test system: human lymphocytes; experiment: In vitro lymphocyte stimulation assay in humans; type: cell-based; conditions: 0.1-100 μg/well, PHA and Con-A
Description: as §1, §2
as §3, with “In this sytem however, no additional compound is added to the in vitro lymphocyte stimulation assay system.” left out

[4] = test system: L-1210 leukemia; experiment: Anti-cancer study, L-1210 leukemia in BDF1 mice; type: in vivo, mouse; conditions: 20 mg/kg, seven days (Table 25)
Excerpt: Mice of the BDF1 strain are given an i.p. inoculation of 10^6 L-1210 leukemia cells on day 0. Twenty-four hours later, groups of 7 mice each are started on a […] treatment regimen of various doses of the compounds of this invention. The experiment is continued according to the guidelines provided under the National Cancer Institute protocol for screening new anti-cancer agents and T/C ratios (median or mean survival time of treated groups over median or mean survival time of controls) are calculated. A T/C value ≥1.25 (or 125%) is considered significant anticancer activity.
(§4) Mice of the BDF1 strain, inoculated with L-1210 leukemia cells, are treated for seven days with either 25, 50, 100, 200 or 400 mg/kg of Cpd. 1 or just buffer. The National Cancer Institute protocol for screening new anti-cancer agents is followed and T/C ratios are calculated.
as §4, with “either 100” for “either 25, 50, 100, 200 or 400”, “Cpd. 1, 20 mg/kg of 5-fluorouracil (5-FU), a known anti-cancer agent,” for “Cpd. 1”

In the case of `CN1C(=O)CCC1=O.Cc1ccc(C2(O)C(=O)OC3C(O)COC32O)o1.Cc1ccc(C2(O)C(=O)OC3C(O)COC32O)o1` (stereo not shown) [Cpd. 3], the “Lymphocyte Stimulation Index, Con-A” value ([1]; 1 μg/well in vitro) is reported as 73.2, the “Lymphocyte Stimulation Index, Control (no mitogen)” value ([1]; 1 μg/well in vitro) is reported as “.60” and the “Lymphocyte Stimulation Index, PHA” value ([1]; 1 μg/well in vitro) is reported as 12.5. The “Lymphocyte Stimulation Index, Con-A” value ([1]; 5 μg/well in vitro) was 80.9, the “Lymphocyte Stimulation Index, Control (no mitogen)” value ([1]; 5 μg/well in vitro) was “.64” and the “Lymphocyte Stimulation Index, PHA” value ([1]; 5 μg/well in vitro) was 18.5. For the same molecule, the “response to PHA” value ([1]; 10 μg/well) was “significantly stimulated the response”, the “Lymphocyte Stimulation Index, Con-A” value ([1]; 10 μg/well in vitro) was 89.6 and the “Lymphocyte Stimulation Index, Control (no mitogen)” value ([1]; 10 μg/well in vitro) was “.47”. For the same molecule, the “Lymphocyte Stimulation Index, PHA” value ([1]; 10 μg/well in vitro) was 24.0, the “response to Con-A” value ([1]; 50 μg/well) was “slightly stimulated the response” and the “Lymphocyte Stimulation Index, Con-A” value ([1]; 50 μg/well in vitro) was 97.2. For the same molecule, the “Lymphocyte Stimulation Index, Control (no mitogen)” value ([1]; 50 μg/well in vitro) was “.27”, the “Lymphocyte Stimulation Index, PHA” value ([1]; 50 μg/well in vitro) was 4.08 and the “response to Con-A” value ([1]; 100 μg/well) was “suppressed the response”. For the same molecule, the “Lymphocyte Stimulation Index, Con-A” value ([1]; 100 μg/well in vitro) was 2.88, the “Lymphocyte Stimulation Index, Control (no mitogen)” value ([1]; 100 μg/well in vitro) was “.25” and the “Lymphocyte Stimulation Index, PHA” value ([1]; 100 μg/well in vitro) was 0.263. The “response to PHA” value ([1]; 50 and 100 μg/well) was “suppressed the response”.

`O=C(O)CCC(=O)O` [Succinic Acid, succinic acid, reference compound] was tested, and the “Lymphocyte Stimulation Index, Con-A” value ([1]; 1.04 μg/well in vitro) was 64.6, the “Lymphocyte Stimulation Index, Control (no mitogen)” value ([1]; 1.04 μg/well in vitro) was “.94” and the “Lymphocyte Stimulation Index, PHA” value ([1]; 1.04 μg/well in vitro) was 15.7. The “Lymphocyte Stimulation Index, Con-A” value ([1]; 2.08 μg/well in vitro) was 51.1, the “Lymphocyte Stimulation Index, Control (no mitogen)” value ([1]; 2.08 μg/well in vitro) was 1.0 and the “Lymphocyte Stimulation Index, PHA” value ([1]; 2.08 μg/well in vitro) was 15.3. The “Lymphocyte Stimulation Index, Con-A” value ([1]; 4.15 μg/well in vitro) was 42.3, the “Lymphocyte Stimulation Index, Control (no mitogen)” value ([1]; 4.15 μg/well in vitro) was “.91” and the “Lymphocyte Stimulation Index, PHA” value ([1]; 4.15 μg/well in vitro) was 14.0. For the same molecule, the “Lymphocyte Stimulation Index, Con-A” value ([1]; 8.3 μg/well in vitro) was 35.6, the “Lymphocyte Stimulation Index, Control (no mitogen)” value ([1]; 8.3 μg/well in vitro) was “.91” and the “Lymphocyte Stimulation Index, PHA” value ([1]; 8.3 μg/well in vitro) was 12.4. The “Lymphocyte Stimulation Index, Con-A” value ([1]; 16.6 μg/well in vitro) was 38.5, the “Lymphocyte Stimulation Index, Control (no mitogen)” value ([1]; 16.6 μg/well in vitro) was 1.1 and the “Lymphocyte Stimulation Index, PHA” value ([1]; 16.6 μg/well in vitro) was 11.5. For the same molecule, the “PHA and Con-A mitogenesis” value ([1]; with increased dosage, 1.04-16.6 μg/well) was “decrease in PHA and Con-A mitogenesis”.

`O=C1O[C@H]([C@@H](O)CO)C(O)=C1O` [AA, ascorbic acid, reference compound] was tested, and the “proliferation with Con-A” value ([2]; 50 mg/kg i.p.) was “stimulation of proliferation”, the “effect with PHA” value ([2]; 50-800 mg/kg i.p.) was “No statistically significant measurable effect” and the “proliferative or anti-proliferative effect” value [3] was “no significant proliferative or anti-proliferative effect”.

With `O=C1CCC(=O)N1` [Succinimide, succinimide, reference compound] the “Lymphocyte Stimulation Index, Con-A” value ([1]; 13.92 μg/well in vitro) was 92.9, the “Lymphocyte Stimulation Index, Control (no mitogen)” value ([1]; 13.92 μg/well in vitro) was 1.4 and the “Lymphocyte Stimulation Index, PHA” value ([1]; 13.92 μg/well in vitro) was 17.1. The “effect on response to either mitogen” value ([1]; 0.87-13.92 μg/well) was “no significant suppressive or enhancing effect”.

In the case of `O=c1[nH]cc(F)c(=O)[nH]1` [5-FU, 5-fluorouracil, reference compound], the “Median Survival Time” value [4] is reported as 30.
